Laboratory results reported in PubChem BioAssay (NCI).
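Exposure lasted 48 hours, with cells grown in 96-well plates and compounds tested at five concentrations. At the GI50, growth is halved. TGI: concentration producing complete growth inhibition.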

What was measured:
Experiment in all cases: NCI tumour cell line growth inhibition, 48 h
KM12 colon = tested on: KM12 colon
CCRF-CEM leukemia = tested on: CCRF-CEM leukemia
SK-MEL-28 melanoma = tested on: SK-MEL-28 melanoma
SNB-75 CNS = tested on: SNB-75 CNS
ACHN renal = tested on: ACHN renal
EKVX NSCLC = tested on: EKVX NSCLC
UO-31 renal = tested on: UO-31 renal
UACC-257 melanoma = tested on: UACC-257 melanoma
PC-3 prostate = tested on: PC-3 prostate
A549 NSCLC = tested on: A549 NSCLC
A498 renal = tested on: A498 renal
CAKI-1 renal = tested on: CAKI-1 renal
RXF 393 renal = tested on: RXF 393 renal
NCI-H23 lung = tested on: NCI-H23 lung
OVCAR-5 ovarian = tested on: OVCAR-5 ovarian
SK-OV-3 ovarian = tested on: SK-OV-3 ovarian
LOX IMVI melanoma = tested on: LOX IMVI melanoma
OVCAR-3 ovarian = tested on: OVCAR-3 ovarian
SK-MEL-2 melanoma = tested on: SK-MEL-2 melanoma
HL-60(TB) leukemia = tested on: HL-60(TB) leukemia
NCI-H226 lung = tested on: NCI-H226 lung
HCC-2998 colon = tested on: HCC-2998 colon
RPMI-8226 leukemia = tested on: RPMI-8226 leukemia
SN12C renal = tested on: SN12C renal
MDA-MB-231 breast = tested on: MDA-MB-231 breast
SK-MEL-5 melanoma = tested on: SK-MEL-5 melanoma
T-47D breast = tested on: T-47D breast
NCI/ADR-RES ovarian = tested on: NCI/ADR-RES ovarian
M14 melanoma = tested on: M14 melanoma
SW-620 colon = tested on: SW-620 colon
SF-268 CNS = tested on: SF-268 CNS
DU-145 prostate = tested on: DU-145 prostate
COLO 205 colon = tested on: COLO 205 colon
NCI-H522 lung = tested on: NCI-H522 lung
HCT-15 colon = tested on: HCT-15 colon
HOP-62 NSCLC = tested on: HOP-62 NSCLC
IGROV1 ovarian = tested on: IGROV1 ovarian
UACC-62 melanoma = tested on: UACC-62 melanoma
NCI-H460 lung = tested on: NCI-H460 lung
HCT-116 colon = tested on: HCT-116 colon
TK-10 renal = tested on: TK-10 renal
786-0 renal = tested on: 786-0 renal
SF-539 CNS = tested on: SF-539 CNS
OVCAR-8 ovarian = tested on: OVCAR-8 ovarian
SNB-19 CNS = tested on: SNB-19 CNS
U251 CNS = tested on: U251 CNS
BT-549 breast = tested on: BT-549 breast
HS 578T breast = tested on: HS 578T breast
HOP-92 NSCLC = tested on: HOP-92 NSCLC
OVCAR-4 ovarian = tested on: OVCAR-4 ovarian
MOLT-4 leukemia = tested on: MOLT-4 leukemia
MDA-MB-435 = tested on: MDA-MB-435
MALME-3M melanoma = tested on: MALME-3M melanoma
SF-295 CNS = tested on: SF-295 CNS

Work on `O=C(/C(=C\c1ccc([N+](=O)[O-])cc1)S(=O)Cc1ccc(F)cc1)c1ccc(F)cc1` (stereo not drawn) yielded a GI50 (KM12 colon) of 2.22 µM, a TGI (KM12 colon) of 5.46 µM and a GI50 (CCRF-CEM leukemia) of 1.48 µM. The TGI (CCRF-CEM leukemia) was 6.75 µM, the GI50 (SK-MEL-28 melanoma) was 1.8 µM and the TGI (SK-MEL-28 melanoma) was 3.66 µM. For the same compound, the GI50 (SNB-75 CNS) was 3.28 µM, the TGI (SNB-75 CNS) was 15.3 µM and the GI50 (ACHN renal) was 2.33 µM. It also gave a TGI (ACHN renal) of 6.51 µM, a GI50 (EKVX NSCLC) of 1.91 µM and a TGI (EKVX NSCLC) of 4.54 µM. The GI50 (UO-31 renal) was 1.52 µM, the TGI (UO-31 renal) was 3.23 µM and the GI50 (UACC-257 melanoma) was 1.79 µM. For the same compound, the TGI (UACC-257 melanoma) was 3.73 µM, the GI50 (PC-3 prostate) was 1.69 µM and the TGI (PC-3 prostate) was 3.47 µM. It also gave a GI50 (A549 NSCLC) of 2.83 µM, a TGI (A549 NSCLC) of 10.2 µM and a GI50 (A498 renal) of 6.19 µM. For the same compound, the TGI (A498 renal) was 18.6 µM, the GI50 (CAKI-1 renal) was 2.07 µM and the TGI (CAKI-1 renal) was 5.54 µM. For the same compound, the GI50 (RXF 393 renal) was 1.78 µM, the TGI (RXF 393 renal) was 3.38 µM and the GI50 (NCI-H23 lung) was 1.91 µM. It also gave a TGI (NCI-H23 lung) of 4.1 µM, a GI50 (OVCAR-5 ovarian) of 1.83 µM and a TGI (OVCAR-5 ovarian) of 3.67 µM. The GI50 (SK-OV-3 ovarian) was 11.8 µM, the TGI (SK-OV-3 ovarian) was 24.2 µM and the GI50 (LOX IMVI melanoma) was 1.54 µM. For the same compound, the TGI (LOX IMVI melanoma) was 3.05 µM, the GI50 (OVCAR-3 ovarian) was 1.63 µM and the TGI (OVCAR-3 ovarian) was 3.01 µM. For the same compound, the GI50 (SK-MEL-2 melanoma) was 2.2 µM, the TGI (SK-MEL-2 melanoma) was 5.47 µM and the GI50 (HL-60(TB) leukemia) was 2.09 µM. For the same compound, the TGI (HL-60(TB) leukemia) was 5.38 µM, the GI50 (NCI-H226 lung) was 4.32 µM and the TGI (NCI-H226 lung) was 21.9 µM. It also gave a GI50 (HCC-2998 colon) of 1.69 µM, a TGI (HCC-2998 colon) of 3.22 µM and a GI50 (RPMI-8226 leukemia) of 1.3 µM. For the same compound, the TGI (RPMI-8226 leukemia) was 4.28 µM, the GI50 (SN12C renal) was 1.9 µM and the TGI (SN12C renal) was 3.99 µM. For the same compound, the GI50 (MDA-MB-231 breast) was 1.99 µM, the TGI (MDA-MB-231 breast) was 4.35 µM and the GI50 (SK-MEL-5 melanoma) was 1.8 µM. The TGI (SK-MEL-5 melanoma) was 3.5 µM, the GI50 (T-47D breast) was 2.08 µM and the TGI (T-47D breast) was 6.57 µM. It also gave a GI50 (NCI/ADR-RES ovarian) of 2.43 µM, a TGI (NCI/ADR-RES ovarian) of 6.98 µM and a GI50 (M14 melanoma) of 1.79 µM. The TGI (M14 melanoma) was 3.76 µM, the GI50 (SW-620 colon) was 1.58 µM and the TGI (SW-620 colon) was 3.13 µM. For the same compound, the GI50 (SF-268 CNS) was 2.11 µM, the TGI (SF-268 CNS) was 5.34 µM and the GI50 (DU-145 prostate) was 1.66 µM. It also gave a TGI (DU-145 prostate) of 3.06 µM, a GI50 (COLO 205 colon) of 1.91 µM and a TGI (COLO 205 colon) of 3.63 µM. It also gave a GI50 (NCI-H522 lung) of 1.77 µM, a TGI (NCI-H522 lung) of 3.31 µM and a GI50 (HCT-15 colon) of 1.64 µM. It also gave a TGI (HCT-15 colon) of 4.43 µM, a GI50 (HOP-62 NSCLC) of 2.74 µM and a TGI (HOP-62 NSCLC) of 8.28 µM. For the same compound, the GI50 (IGROV1 ovarian) was 1.69 µM, the TGI (IGROV1 ovarian) was 3.49 µM and the GI50 (UACC-62 melanoma) was 1.71 µM. The TGI (UACC-62 melanoma) was 3.25 µM, the GI50 (NCI-H460 lung) was 2.13 µM and the TGI (NCI-H460 lung) was 4.7 µM. It also gave a GI50 (HCT-116 colon) of 1.64 µM, a TGI (HCT-116 colon) of 3.07 µM and a GI50 (TK-10 renal) of 2.31 µM. The TGI (TK-10 renal) was 7 µM, the GI50 (786-0 renal) was 1.74 µM and the TGI (786-0 renal) was 3.92 µM. It also gave a GI50 (SF-539 CNS) of 1.69 µM, a TGI (SF-539 CNS) of 3.37 µM and a GI50 (OVCAR-8 ovarian) of 2.17 µM. For the same compound, the TGI (OVCAR-8 ovarian) was 5.34 µM, the GI50 (SNB-19 CNS) was 2.37 µM and the TGI (SNB-19 CNS) was 5.61 µM. The GI50 (U251 CNS) was 1.72 µM, the TGI (U251 CNS) was 3.44 µM and the GI50 (BT-549 breast) was 1.96 µM. It also gave a TGI (BT-549 breast) of 3.88 µM, a GI50 (HS 578T breast) of 3.3 µM and a TGI (HS 578T breast) of 75 µM. It also gave a GI50 (HOP-92 NSCLC) of 1.86 µM, a TGI (HOP-92 NSCLC) of 3.98 µM and a GI50 (OVCAR-4 ovarian) of 1.84 µM. The TGI (OVCAR-4 ovarian) was 3.91 µM, the GI50 (MOLT-4 leukemia) was 1.51 µM and the TGI (MOLT-4 leukemia) was 5.06 µM. For the same compound, the GI50 (MDA-MB-435) was 1.84 µM, the TGI (MDA-MB-435) was 4.09 µM and the GI50 (MALME-3M melanoma) was 1.64 µM. It also gave a TGI (MALME-3M melanoma) of 3.55 µM, a GI50 (SF-295 CNS) of 1.68 µM and a TGI (SF-295 CNS) of 3.72 µM.
